Results as given in patent US20230303494A1, “BENZYLAMINE DERIVATIVE, PREPARATION METHOD THEREFOR AND USE THEREOF” (ACADEMY OF MILITARY MEDICAL SCIENCES, priority 2020, published 2023).

Experiments:
[1] = tested on: Human peripheral blood mononuclear cells (PBMCs); assay: Promotion of IFN-γ secretion in PBMCs treated with anti-CD3/anti-CD28 and PDL1/FC fusion protein (ELISA); type: cell-based; settings: for IFN-γ / Increase rate of IFN-γ expression vs PDL1 treatment: hPD-L1 10.0 μg/mL, 72 h
Protocol: Human peripheral blood mononuclear cells (PBMCs) were isolated from 10-15 ml of whole blood of healthy volunteers using experimental human lymphocyte separation medium (TBD sciences). The cells were washed twice with normal saline and resuspended in buffer (RPMI 1640 complete medium containing 10% FBS, SIGMA) to count the cell density. The PBMCs were dispersed and placed in a 96-well plate, 1×10^5 cells and 50 μL of buffer per well. Anti-CD3 antibody (SIGMA) and anti-CD28 antibody (SIGMA) were mixed at a ratio of 1:1 to obtain an antibody mixture. The antibody mixture was added to the wells to ensure that the final concentration of antibody was 0.8 μg/mL. At the same time, PDL1/FC fusion protein (SINO BIOLOGICAL) was added to reach a final concentration of 10.0 μg/mL, and the compound to be tested was diluted with buffer and added to the wells to reach a final concentration of 0.1 μM or 1 μM. The mixed system was incubated at 37° C. and 5% CO2 for 72 h. The supernatant was collected, and the expression level of IFN-γ was measured by ELISA MAXTM Human IFN-γ Standard Kit (BioLegend), and the increase rate was calculated. Increase rate (%)=(expression amount of compound treatment−expression amount of PDL1 treatment)/expression amount of PDL1 treatment×100%

[2] = tested on: Raji cells; assay: Cytotoxicity, Cell Titer-Glo, Raji cells; type: cell-based; settings: Homo sapiens, 24 hours incubation, read-out: Raji cells IC50 (cell death)
Protocol: (§1) The raji (ATCC), raw (ATCC) and PBMCs cells were suspended in buffer (RPMI 1640 complete medium containing 10% FBS, SIGMA), respectively, and the cell density was counted. The cells were transferred to wells of a 96-well plate, ensuring that the cell density of each well was 1×10^4 cells/well, and incubated for 24 hours at 37° C., 5% CO2 with compounds at different concentrations (100 μM, 50 μM, 25 μM, 12.5 μM, 6.25 μM and 3.125 μM) and buffer control solution (0.2% DMSO). To each well, 100 μL of Cell Titer-Glo Luminescent Solution (Promega) was added and shaken for 10 minutes at room temperature, and then GloMax® Navigator System was used to measure the system […], and the cell death rate was calculated. Cell death rate (%)=(1−RLUcompound/RLUcontrol)×100%, and IC50 was determined from the inhibition curve.

[3] = tested on: Raw cells; assay: Cytotoxicity, Cell Titer-Glo, Raw cells; type: cell-based; settings: 24 hours incubation; read-out: Raw cells IC50 (cell death)
Protocol: as §1

[4] = tested on: PBMCs cells; assay: Cytotoxicity, Cell Titer-Glo, PBMCs cells; type: cell-based; settings: Homo sapiens, PBMC; 24 hours incubation; read-out: PBMCs cells IC50 (cell death)
Protocol: as §1

[5] = target: PD-1/PD-L1 interaction (Homo sapiens (Human), UniProt Q9NZQ7); assay: PD-1/PD-L1 Binding Assay kit (Cisbio), HTRF; settings: 8-10 concentrations, read-out: IC50 of inhibition of PD-1/PD-L1 interaction
[6] = target: human PD-L1 (Homo sapiens (Human), UniProt Q9NZQ7); assay: Biofilm interferometry (BLI, OctetRED) binding to human PD-L1/AVI; settings: 1:1 binding model; for koff: read-out: Kdis
Protocol: In the experiment, the instrument OctectRED of Fortebio Company based on biofilm interferometry (BLI) technology was used to capture human PD-L1/AVI with SA chips. The concentration of antigen PD-L1/AVI was diluted to 10 μg/mL with running buffer (PBS+0.02% Tween-20+2% DMSO), and the loading time was 300 s; similarly, the analyte was also diluted to the corresponding concentrations (20 nM, 10 nM, 5 nM, 2.5 nM, 1.25 nM, 0.625 nM, 0.3125 nM) with running buffer in gradient manner, and a buffer blank control group was set at the same time. The binding time of human PD-L1/AVI to the analyte was 180 s, and the dissociation time was 300 s; the chip was regenerated with 10 mM glycine HCl, pH 1.7 solution and repeated 5-second pulse for 3 times. The data were fitted to a 1:1 binding model to determine the equilibrium dissociation constant KD.

Chain of human PD-L1 (Q9NZQ7 19-290): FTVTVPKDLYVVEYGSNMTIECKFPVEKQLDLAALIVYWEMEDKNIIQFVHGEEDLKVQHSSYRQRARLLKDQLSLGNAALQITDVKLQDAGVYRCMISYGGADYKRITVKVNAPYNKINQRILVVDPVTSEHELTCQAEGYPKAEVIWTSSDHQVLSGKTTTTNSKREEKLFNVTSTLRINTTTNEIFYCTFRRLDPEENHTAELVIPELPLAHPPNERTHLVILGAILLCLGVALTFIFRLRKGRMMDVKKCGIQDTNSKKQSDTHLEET
Chain of PD-1/PD-L1 interaction (Q9NZQ7 19-238): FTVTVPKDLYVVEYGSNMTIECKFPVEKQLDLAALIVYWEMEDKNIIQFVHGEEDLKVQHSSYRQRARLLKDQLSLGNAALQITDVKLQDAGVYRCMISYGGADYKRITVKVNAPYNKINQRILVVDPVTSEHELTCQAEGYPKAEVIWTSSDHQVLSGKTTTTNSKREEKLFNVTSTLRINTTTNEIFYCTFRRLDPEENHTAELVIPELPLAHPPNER

Row | SMILES | IC50 [5] [µM] | IC50 [2] [µM] | IC50 [3] [µM] | IC50 [4] [µM] | other results
1 | Cc1c(C#N)cncc1COc1cc(OCc2cccc(-c3ccccc3)c2C)ccc1CNC(CO)C(=O)O (centres unmarked) [Compound 38, reference compound] |  | 32.1 | 28.8 | 26.6 | IFN-γ ([1]; compound 0.1 μM): 23300 pg/mL; Increase rate of IFN-γ expression vs PDL1 treatment ([1]; compound 0.1 μM): 9.4%; IFN-γ ([1]; compound 1.0 μM): 22600 pg/mL; Increase rate of IFN-γ expression vs PDL1 treatment ([1]; compound 1.0 μM): 6.1%
2 | Cc1c(COc2ccc(CN[C@H](CO)C(=O)O)c(OCc3cncc(C#N)c3)c2)cccc1-c1ccccc1 [Compound 37, reference compound] | 0.323 |  |  |  | 
3 | COc1cc(NCc2cccc(-c3ccccc3)c2C)c(C)cc1CNC(CO)C(=O)O (centres unmarked) [Compound 14] |  | > 100 | > 100 | > 100 | 
4 | COc1cc(NCc2cccc(-c3ccccc3)c2C)ncc1CN[C@H](CO)C(=O)O [Compound 15] | 2.63 |  |  |  | 
5 | Cc1c(NCc2ccc(CN[C@H](CO)C(=O)O)c(OCc3cncc(C#N)c3)c2)cccc1-c1ccccc1 [Compound 28] | 0.191 |  |  |  | 
6 | Cc1cc(CN[C@H](CC(N)=O)C(=O)O)c(OCc2cncc(C#N)c2)cc1NCc1cccc(-c2ccccc2)c1C [Compound 25] | 0.047 |  |  |  | 
7 | CC(=O)NCCNCc1ccc(NCc2cccc(-c3ccccc3)c2C)cc1OCc1cccc(C#N)c1 [Compound 1] | 4.94 |  |  |  | 
8 | Cc1c(CNc2ccc(CNCCO)c(OCc3cccc(C#N)c3)c2)cccc1-c1ccccc1 [Compound 2] | 3.67 |  |  |  | 
9 | Cc1c(CN(C)c2ccc(CN[C@H](CO)C(=O)O)c(OCc3cccc(C#N)c3)c2)cccc1-c1ccccc1 [Compound 26] | > 100 |  |  |  | 
10 | Cc1c(CNc2ccc(CNC(CO)CO)c(OCc3cccc(C#N)c3)c2)cccc1-c1ccccc1 [Compound 3] | 2.6 |  |  |  | 
11 | N#Cc1cccc(COc2cc(NCc3cccc(-c4ccccc4)c3Br)ccc2CNC(CO)C(=O)O)c1 (centres unmarked) [Compound 33] | 0.637 |  |  |  | 
12 | Cc1c(CN(C)c2ccc(CNCCO)c(OCc3cccc(C#N)c3)c2)cccc1-c1ccccc1 [Compound 27] | 22.6 | 84.1 | > 100 | > 100 | 
13 | Cc1cc(CNC[C@@H](O)CC(=O)O)c(OCc2cncc(C#N)c2)cc1NCc1cccc(-c2ccccc2)c1C [Compound 22] | 0.017 |  |  |  | 
14 | COc1nc(OCc2cccc(-c3ccccc3)c2C)ccc1CNCCNC(C)=O [BMS202] |  |  |  |  | IFN-γ ([1]; compound 0.1 μM): 35100 pg/mL; Increase rate of IFN-γ expression vs PDL1 treatment ([1]; compound 0.1 μM): 64.8%; IFN-γ ([1]; compound 1.0 μM): 39100 pg/mL; Increase rate of IFN-γ expression vs PDL1 treatment ([1]; compound 1.0 μM): 83.6%
15 | N#Cc1cncc(COc2cc(NCc3cccc(-c4ccccc4)c3C(F)(F)F)ccc2CN[C@H](CO)C(=O)O)c1 [Compound 30] | 2.93 |  |  |  | 
16 | Cc1c(CNc2ccc(CN[C@H](CO)C(=O)O)c(OCc3cncc(C#N)c3)c2)cccc1-c1ccccc1 [Compound 10] | 0.038 | > 100 | > 100 | > 100 | Kd [6]: 0.000296 µM; kon [6]: 849000 M⁻¹ s⁻¹; koff [6]: 0.000251 s⁻¹; IFN-γ ([1]; compound 0.1 μM): 37700 pg/mL; Increase rate of IFN-γ expression vs PDL1 treatment ([1]; compound 0.1 μM): 77.0%; IFN-γ ([1]; compound 1.0 μM): 41500 pg/mL; Increase rate of IFN-γ expression vs PDL1 treatment ([1]; compound 1.0 μM): 94.8%; effect on promoting IFN-γ secretion at the cellular level ([1]; in words, better than that of BMS202): significant effect on promoting IFN-γ secretion
17 | Cc1cc(CN[C@H](CO)C(=O)O)c(OCc2cncc(C#N)c2)cc1NCc1cccc(-c2ccccc2)c1C(F)(F)F [Compound 29] | 0.61 |  |  |  | 
18 | Cc1cc(CN[C@@H](CO)CC(=O)O)c(OCc2cncc(C#N)c2)cc1NCc1cccc(-c2ccccc2)c1C [Compound 18] | 0.023 |  |  |  | 
19 | Cc1cc(CN[C@H](CO)C(=O)O)c(OCc2cccnc2)cc1NCc1cccc(-c2ccccc2)c1C [Compound 17] | 0.092 | 78.9 | 61.6 | > 100 | 
20 | COc1nc(NCc2cccc(-c3ccccc3)c2C)ccc1CNCCNC(C)=O [Compound 9] | 4.24 |  |  |  | 
21 | N#Cc1cncc(COc2cc(NCc3cccc(-c4ccccc4)c3Br)ccc2CNC(CO)C(=O)O)c1 (centres unmarked) [Compound 31] |  | > 100 | > 100 | > 100 | 
22 | Cc1c(COc2ccc(CNC(CO)C(=O)O)c(OCc3cncc(C#N)c3)c2)cccc1-c1ccccc1 (centres unmarked) [Compound 37, reference compound] |  | 22.6 | 31.2 | 16.8 | Kd [6]: 0.0675 µM; kon [6]: 12600 M⁻¹ s⁻¹; koff [6]: 0.000851 s⁻¹; IFN-γ ([1]; compound 0.1 μM): 23200 pg/mL; Increase rate of IFN-γ expression vs PDL1 treatment ([1]; compound 0.1 μM): 8.9%; IFN-γ ([1]; compound 1.0 μM): 25100 pg/mL; Increase rate of IFN-γ expression vs PDL1 treatment ([1]; compound 1.0 μM): 17.8%
23 | Cc1cc(NCc2cccc(-c3ccccc3)c2C)cc(OCc2cccc(C#N)c2)c1CN[C@H](CO)C(=O)O [Compound 6] | 0.436 |  |  |  | 
24 | COc1cc(NCc2cccc(-c3ccccc3)c2C)cc(OCc2cccc(C#N)c2)c1CN[C@H](CO)C(=O)O [Compound 8] | 0.672 | > 100 | > 100 | > 100 | 

Now from value to compound, other results behind:

Row | IC50 [5] [µM] | SMILES | IC50 [2] [µM] | IC50 [3] [µM] | IC50 [4] [µM] | other results
25 | 0.107 | COc1cc(NCc2cccc(-c3ccccc3)c2C)c(Cl)cc1CN[C@H](CO)C(=O)O [Compound 11] |  |  |  | Kd [6]: 0.000515 µM; kon [6]: 1.29e+06 M⁻¹ s⁻¹; koff [6]: 0.000664 s⁻¹
26 | 0.165 | Cc1cc(CN[C@H](CO)C(=O)O)c(OCc2cccc(C#N)c2)cc1NCc1cccc(-c2ccccc2)c1C [Compound 19] |  |  |  | 
27 | 4.54 | COc1nc(NCc2cccc(-c3ccccc3)c2C)ccc1CN[C@H](CO)C(=O)O [Compound 12] |  |  |  | 
28 | 0.435 | Cc1c(CNc2ccc(CN[C@H](CO)C(=O)O)c(OCc3cccc(C#N)c3)c2)cccc1-c1ccc2c(c1)OCCO2 [Compound 34] | 90.3 | > 100 | > 100 | 
29 | 0.363 | Cc1cc(NCc2cccc(-c3ccccc3)c2C)cc(OCc2cncc(C#N)c2)c1CN[C@H](CO)C(=O)O [Compound 7] |  |  |  | 
30 | 1.33 | Cc1cc(CN[C@H](CCO)C(=O)O)c(OCc2cncc(C#N)c2)cc1NCc1cccc(-c2ccccc2)c1C [Compound 24] |  |  |  | 
31 | 0.347 | CCOc1cc(NCc2cccc(-c3ccccc3)c2C)c(C)cc1CN[C@H](CO)C(=O)O [Compound 20] |  |  |  | 
32 | 0.024 | Cc1cc(CN2C[C@H](O)C[C@H]2C(=O)O)c(OCc2cncc(C#N)c2)cc1NCc1cccc(-c2ccccc2)c1C [Compound 21] | > 100 | 88.2 | 75.5 | 
33 | 1.04 | Cc1c(C#N)cncc1COc1cc(OCc2cccc(-c3ccccc3)c2C)ccc1CN[C@H](CO)C(=O)O [Compound 38, reference compound] |  |  |  | 
34 | 1.16 | Cc1c(CNc2ccc(CN[C@H](CO)C(=O)O)c(OCc3cccc(C#N)c3)c2)cccc1-c1ccccc1 [Compound 4] | > 100 | > 100 | > 100 | Kd [6]: 0.00181 µM; kon [6]: 651000 M⁻¹ s⁻¹; koff [6]: 0.00118 s⁻¹
35 | 0.036 | Cc1cc(CN2C[C@@H](O)CC2=O)c(OCc2cncc(C#N)c2)cc1NCc1cccc(-c2ccccc2)c1C [Compound 23] |  |  |  | 
